# “Also recorded” adds a separate entry of the source.
# Tested on: submissive rats
# Test: Dominant-Submissive Relations (DSR) assay: Reduction of Submissive Behavior Model (RSBM) of depression
# Assay type: in vivo, Male Sprague Dawley rats
# Description: The DSR assay is divided into two models: Reduction of Dominant Behavior Model (RDBM) of mania and Reduction of Submissive Behavior Model (RSBM) of depression. The RDBM, wherein the dominant animals are treated with test compound, is predictive of the ability of the test compound to treat mania. The RSBM, wherein the submissive animals are treated with test compound, is predictive of the ability of the test compound to treat depression.
# Male Sprague Dawley rats (140 to 160 g) from Charles River Laboratories Wilmington, Mass. were used in this assay. Shipments of rats were received at two-week intervals. Each shipment went through five-day quarantine, one-week acclimation period, and one-week selection process, followed by five-weeks of drug or vehicle treatment to those pairs selected.
# Rats were housed four per cage. Access to food was restricted to one hour per day after testing on Monday through Thursday. After testing on Friday, rats had free access to food until being fasted again on Sunday. At no time were the rats deprived of water. The food deprivation periods used had little effect on weight gain as the average weight of rats was about 300 g at the end of the study. At the conclusion of experiment rats were sacrificed by decapitation, the trunk blood and brains were collected for in vitro experiments and drug concentration measurements.
# The basic testing apparatus consisted of two chambers connected with a tunnel only large enough to allow one rat to pass through at a time. On the floor, at the mid-point of the tunnel was a container of sweetened milk. This basic apparatus was replicated, so that a total of four pairs of rats can be video tracked simultaneously. The camera can distinguish rats marked by different colors. Thus, the rats' heads were colored for the purpose of video tracking, red in one cage and yellow in the other cage. Only one animal at a time can have comfortable access to the feeder, but both animals can drink milk during the five-minute daily session. During the five-minute daily sessions, time spent in the feeder zone by each rat was recorded by the video tracking software and saved into a text file.
# The test began with a random assignment of rats into pairs. Each member of a pair was placed in an opposite chamber of the testing apparatus. The time spent in the feeder zone by each animal was recorded. During the first week (five days) of testing the animals habituate to the new environment. Dominance was assigned to the animal with the highest score during the second week of testing if three criteria were achieved. First, there must have been a significant difference (two-tailed t-test, P<0.05) between the average daily drinking scores of both animals. Second, the dominant animal score must have been at least 25% greater than the submissive animal's score. Finally, there must have been no “reversals” during the pair selection week where the putative submissive rat out-scored its dominant partner on isolated occasions. Ideally there were minimal reversals during the acclimation week as well. About twenty-five to thirty-three percent of the initial animal pairs achieved these criteria and only these pairs were continued in the study.
# Significant differences between time spent on the feeder by dominant and submissive rats were determined by ANOVA using GraphPad Prism software (GraphPad Software, Inc. San Diego, Calif.) followed by a two-tailed t-test (P<0.05). Comparisons were made between treatment groups using normalized dominance level values in paired animals. The dominance level is a value that measures social relation between paired subjects. Dominance level (DL)=FTD−FTS where FTD is the feeder time of dominant rats and FTS is the feeder time of submissive rats. The normalization was conducted according to the formula: Dominance Level (week n in %)=(Dominance Level (week n))/(Dominance Level (week 2) […]
compound,measurement,setting,value
"NS(=O)(=O)NC[C@H]1COc2cc(Cl)ccc2O1 [Compound #8, (2S)-(−)-N-(6-Chloro-2,3-dihydro-benzo[1,4]dioxin-2-ylmethyl)-sulfamide]",Dominance Level (DL) values vs vehicle control,2.5 mg/kg p.o.,did not significantly differ from control
same,consistent loss of significance between dominant and submissive rats feeder time,2.5 mg/kg p.o.,no consistent loss of significance
same,Dominance Level (DL) values vs vehicle control,12.0 mg/kg p.o.,"significantly different from vehicle treated controls after the second, fourth and fifth week of treatment"
same,Dominance Level (DL) values vs vehicle control,60 mg/kg p.o.,significant difference in DL values relative to vehicle starting at the first week and continuing through the treatment duration of 5 weeks
same,difference in DL values with fluoxetine treated group,60.0 mg/kg p.o. vs fluoxetine 10 mg/kg,statistically significant at p<0.001 after first week and p<0.05 after second week of treatment
same,Dominance Level (DL) values vs vehicle control,120 mg/kg p.o.,"significantly different from the control group after first week, however, this significance dissipated after the second week of treatment"
same,consistent loss of significance between dominant and submissive rats feeder time,120.0 mg/kg p.o.,no consistent loss of significance
same,loss of significant difference between dominant and submissive rats,"Compound #8 p.o., all doses used (2.5, 12, 60, 120 mg/kg)",lost after the first week of treatment
same,increased submissiveness during first week of treatment (effect seen with fluoxetine),"Compound #8 treated groups, p.o.",did not show this effect
same,ED50,"Rattus norvegicus, po, RSBM, calculated",6.6 ± 0.8 mg/kg
same,reduction of submissive behavior,"p.o. once a day for 5 weeks to submissive rats, 2.5-120 mg/kg",reduce submissive behavior in a dose-dependent manner; also recorded: reduced submissive behavior

# Source: patent publication US20070155827A1, “USE OF BENZO-FUSED HETEROCYCLE SULFAMIDE DERIVATIVES FOR THE TREATMENT OF DEPRESSION” (priority 2005, published 2007)
